The molecules below were run against recombinant CD73 (Homo sapiens (Human), UniProt P21589) (assay: Inhibition of the CD73 enzyme in vitro (soluble recombinant CD73, AMP, Malachite Green)). Conditions: recombinant CD73 0.5 nM, AMP 50 μM, 30 minutes at room temperature.
Format: biochemical
Protocol: The concentration of inorganic phosphate was determined using a phosphate standard curve.

recombinant CD73, sequence (P21589 27-547): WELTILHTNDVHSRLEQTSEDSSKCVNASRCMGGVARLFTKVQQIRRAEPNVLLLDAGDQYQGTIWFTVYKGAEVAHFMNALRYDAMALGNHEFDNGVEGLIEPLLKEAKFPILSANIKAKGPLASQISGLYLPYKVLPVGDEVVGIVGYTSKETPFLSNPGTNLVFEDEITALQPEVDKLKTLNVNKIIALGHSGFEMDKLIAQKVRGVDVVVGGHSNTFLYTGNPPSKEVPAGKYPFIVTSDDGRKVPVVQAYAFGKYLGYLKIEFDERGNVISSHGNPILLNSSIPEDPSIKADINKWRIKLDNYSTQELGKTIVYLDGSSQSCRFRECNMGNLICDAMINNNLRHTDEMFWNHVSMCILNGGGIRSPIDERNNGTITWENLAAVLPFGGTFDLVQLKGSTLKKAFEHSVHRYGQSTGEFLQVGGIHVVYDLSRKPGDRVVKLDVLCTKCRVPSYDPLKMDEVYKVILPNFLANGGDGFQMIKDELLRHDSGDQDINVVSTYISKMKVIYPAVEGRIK

Question: For `Nc1nc(Cl)nc2c1ncn2[C@@H]1O[C@H](COC(Cc2ccccc2F)(C(=O)O)C(=O)O)[C@@H](O)[C@@H]1F` [compound 127], which IC50 is on record?
Answer: 149 nM

Question: How did the IC50 turn out when `O=C(O)C(Cc1ccccc1)(OC[C@H]1O[C@@H](n2cnc3c(SC4CCCC4)nc(Cl)nc32)[C@@H](F)[C@@H]1O)C(=O)O` [compound 109] was run?
Answer: 601 nM

Question: With `Nc1nc(Cl)nc2c1ncn2[C@@H]1O[C@H](COC(Cc2ccc3c(c2)OC(F)(F)O3)(C(=O)O)C(=O)O)[C@@H](O)[C@@H]1F` [compound 110] as the molecule, how does the IC50 read?
Answer: 66 nM

Question: How did the IC50 turn out when `Nc1nc(Cl)nc2c1ncn2[C@@H]1O[C@H](COC(Cc2ccc(C(=O)NCCC(=O)O)cc2)(C(=O)O)C(=O)O)[C@@H](O)[C@@H]1F` [compound 87, 2-(((2R,3R,4S,5R)-5-(6-amino-2-chloro-9H-purin-9-yl)-4-fluoro-3-hydroxytetrahydro-furan-2-yl)methoxy)-2-(4-((2-carboxy-ethyl)carbamoyl)benzyl) malonic acid] was run?
Answer: 83 nM

Question: How did the IC50 turn out when `Nc1nc(Cl)nc2c1ncn2[C@@H]1O[C@H](COC(Cc2ccc(S(N)(=O)=O)cc2)(C(=O)O)C(=O)O)[C@@H](O)[C@@H]1F` [compound 86, 2-(((2R,3R,4S,5R)-5-(6-amino-2-chloro-9H-purin-9-yl)-4-fluoro-3-hydroxytetrahydrofuran-2-yl)methoxy)-2-(4-sulfamoylbenzyl)malonic acid] was run?
Answer: 62 nM

Question: With `CCOC(=O)C(Cc1ccc(OC(F)(F)F)cc1)(OC[C@H]1O[C@@H](n2cnc3c(N)nc(Cl)nc32)[C@@H](F)[C@@H]1O)C(=O)O` (single isomer, unassigned) [compound 38] as the molecule, how does the IC50 read?
Answer: 686 nM

Question: `Nc1nc(Cl)nc2c1ncn2[C@@H]1O[C@H](COC(Cc2ccccc2)(C(=O)O)C(=O)O)C[C@@H]1F` [compound 119] was tested. Which IC50 did it give?
Answer: 28000 nM

Question: `COc1nc(N)c2ncn([C@@H]3O[C@H](COC(Cc4ccccc4)(C(=O)O)C(=O)O)C[C@@H]3F)c2n1` [compound 120] was tested. Which IC50 did it give?
Answer: 54500 nM

Question: With `Nc1nc(Cl)nc2c1ncn2[C@@H]1O[C@H](COC(Cc2ccccc2)(C(=O)O)C(=O)O)[C@@H](O)[C@@H]1F` [compound 169] as the molecule, how does the IC50 read?
Answer: 119 nM

Question: `Nc1nc(Cl)nc2c1ncn2[C@@H]1O[C@H](COC(Cc2ccc(NC(=O)c3cccs3)cc2)(C(=O)O)C(=O)O)[C@@H](O)[C@@H]1F` [compound 141] was tested. Which IC50 did it give?
Answer: 60 nM

Question: `CS(=O)(=O)c1ccc(CC(OC[C@H]2O[C@@H](n3cnc4c(N)nc(Cl)nc43)[C@@H](F)[C@@H]2O)(C(=O)O)C(=O)O)cc1` [compound 21, 2-(((2R,3R,4S,5R)-5-(6-amino-2-chloro-9H-purin-9-yl)-4-fluoro-3-hydroxytetrahydrofuran-2-yl)methoxy)-2-(4-(methylsulfonyl)benzyl) malonic acid] was tested. Which IC50 did it give?
Answer: 193 nM

Question: Which IC50 does the source give for `CS(=O)(=O)c1ccc(CC(OC[C@H]2O[C@@H](n3cnc4c(N)nc(Cl)nc43)[C@@H](F)[C@@H]2O)(C(=O)O)C(=O)O)cc1` [compound 153] here?
Answer: 74 nM

Question: How did the IC50 turn out when `Nc1nc(Cl)nc2c1ncn2[C@@H]1O[C@H](COC(Cc2ccc(-c3ccc(F)cc3)cc2)(C(=O)O)C(=O)O)[C@@H](O)[C@@H]1F` [compound 144] was run?
Answer: 65 nM

Question: Which IC50 does the source give for `CCOC(=O)C(Cc1ccccc1)(OC[C@@H]1C[C@H](F)[C@H](n2cnc3c(N)nc(Cl)nc32)O1)C(=O)OCC` [compound 118] here?
Answer: > 200000 nM

Question: With `Nc1nc(Cl)nc2c1ncn2[C@@H]1O[C@H](COC(Cc2cccc(O)c2)(C(=O)O)C(=O)O)[C@@H](O)[C@@H]1F` [compound 56, 2-(((2R,3R,4S,5R)-5-(6-amino-2-chloro-9H-purin-9-yl)-4-fluoro-3-hydroxytetrahydrofuran-2-yl)methoxy)-2-(3-hydroxybenzyl)malonic acid] as the molecule, how does the IC50 read?
Answer: 168 nM

Question: Which IC50 does the source give for `Nc1nc(Cl)nc2c1ncn2[C@@H]1O[C@H](COC(Cc2c(F)cc(Cl)cc2F)(C(=O)O)C(=O)O)[C@@H](O)[C@@H]1F` [compound 126] here?
Answer: 25300 nM

Question: With `Nc1nc(Cl)nc2c1ncn2[C@@H]1O[C@H](COC(Cc2ccc(C(=O)O)s2)(C(=O)O)C(=O)O)[C@@H](O)[C@@H]1F` [compound 77, 2-(((2R,3R,4S,5R)-5-(6-amino-2-chloro-9H-purin-9-yl)-4-fluoro-3-hydroxytetrahydro-furan-2-yl)methoxy)-2-((5-carboxythiophen-2-yl)methyl)malonic acid] as the molecule, how does the IC50 read?
Answer: 255 nM

Question: `Nc1nc(Cl)nc2c1ncn2[C@@H]1O[C@H](COC(Cc2csc3ccc(Cl)cc23)(C(=O)O)C(=O)O)[C@@H](O)[C@@H]1F` [compound 96, 2-(((2R,3R,4S,5R)-5-(6-amino-2-chloro-9H-purin-9-yl)-4-fluoro-3-hydroxytetrahydrofuran-2-yl)methoxy)-2-((5-chlorobenzo[b]thiophen-3-yl)methyl)-malonic acid] was tested. Which IC50 did it give?
Answer: 788 nM

Question: Which IC50 does the source give for `Nc1nc(Cl)nc2c1ncn2[C@@H]1O[C@H](COC(Cc2ccc(NC(=O)c3cccs3)cc2)(C(=O)O)C(=O)O)[C@@H](O)[C@@H]1F` [compound 140] here?
Answer: 30 nM

Question: For `COc1ccc(CC(OC[C@H]2O[C@@H](n3cnc4c(N)nc(Cl)nc43)[C@@H](F)[C@@H]2O)(C(=O)O)C(=O)O)cc1Cl` [compound 85, 2-(((2R,3R,4S,5R)-5-(6-amino-2-chloro-9H-purin-9-yl)-4-fluoro-3-hydroxytetrahydrofuran-2-yl)methoxy)-2-(3-chloro-4-methoxybenzyl)malonic acid], which IC50 is on record?
Answer: 183 nM

Question: For `Nc1nc(Cl)nc2c1ncn2[C@@H]1O[C@H](COC(Cc2cn[nH]c2)(C(=O)O)C(=O)O)[C@@H](O)[C@@H]1F` [compound 64, 2-((1H-pyrazol-4-yl)methyl)-2-(((2R,3R,4S,5R)-5-(6-amino-2-chloro-9H-purin-9-yl)-4-fluoro-3-hydroxytetrahydrofuran-2-yl)methoxy)malonic acid], which IC50 is on record?
Answer: 860 nM

Question: For `Nc1nc(Cl)nc2c1ncn2[C@@H]1O[C@H](COC(Cc2ccc(C(F)(F)F)o2)(C(=O)O)C(=O)O)[C@@H](O)[C@@H]1F` [compound 59, 2-(((2R,3R,4S,5R)-5-(6-amino-2-chloro-9H-purin-9-yl)-4-fluoro-3-hydroxytetrahydro-furan-2-yl)methoxy)-2-((5-(trifluoromethyl)-furan-2-yl)methyl)malonic acid], which IC50 is on record?
Answer: 439 nM

Question: How did the IC50 turn out when `Nc1nc(Cl)nc2c1ncn2[C@@H]1O[C@H](COC(Cc2ccc(-c3nnn[nH]3)cc2)(C(=O)O)C(=O)O)[C@@H](O)[C@@H]1F` [compound 54, 2-(4-(1H-tetrazol-5-yl)benzyl)-2-(((2R,3R,4S,5R)-5-(6-amino-2-chloro-9H-purin-9-yl)-4-fluoro-3-hydroxytetrahydro-furan-2-yl)methoxy)malonic acid] was run?
Answer: 220 nM

Question: Which IC50 does the source give for `Nc1ncnc2c1ncn2[C@@H]1O[C@H](COC(Cc2cccc(OC(F)(F)F)c2)(C(=O)O)C(=O)OCCN2CCOCC2)[C@@H](O)[C@@H]1F` (some centres unmarked) [compound 139] here?
Answer: 16500 nM

Question: For `Nc1nc(Cl)nc2c1ncn2[C@@H]1O[C@H](COC(Cc2ccc(C(F)(F)F)c(F)c2)(C(=O)O)C(=O)O)[C@@H](O)[C@@H]1F` [compound 60, 2-(((2R,3R,4S,5R)-5-(6-amino-2-chloro-9H-purin-9-yl)-4-fluoro-3-hydroxytetrahydro-furan-2-yl)methoxy)-2-(3-fluoro-4-(trifluoromethyl)benzyl) malonic acid], which IC50 is on record?
Answer: 51 nM

These molecules were tested against endogenous, cell-bound CD73 on SK-MEL-28 cells (Homo sapiens (Human), UniProt P21589) (assay: Inhibition of endogenous, cell-bound CD73 enzyme activity in SK-MEL-28 cells (AMP, Malachite Green)). Conditions: 100 μM AMP, 30 minutes at room temperature.
endogenous, cell-bound CD73 on SK-MEL-28 cells, sequence (P21589 27-574): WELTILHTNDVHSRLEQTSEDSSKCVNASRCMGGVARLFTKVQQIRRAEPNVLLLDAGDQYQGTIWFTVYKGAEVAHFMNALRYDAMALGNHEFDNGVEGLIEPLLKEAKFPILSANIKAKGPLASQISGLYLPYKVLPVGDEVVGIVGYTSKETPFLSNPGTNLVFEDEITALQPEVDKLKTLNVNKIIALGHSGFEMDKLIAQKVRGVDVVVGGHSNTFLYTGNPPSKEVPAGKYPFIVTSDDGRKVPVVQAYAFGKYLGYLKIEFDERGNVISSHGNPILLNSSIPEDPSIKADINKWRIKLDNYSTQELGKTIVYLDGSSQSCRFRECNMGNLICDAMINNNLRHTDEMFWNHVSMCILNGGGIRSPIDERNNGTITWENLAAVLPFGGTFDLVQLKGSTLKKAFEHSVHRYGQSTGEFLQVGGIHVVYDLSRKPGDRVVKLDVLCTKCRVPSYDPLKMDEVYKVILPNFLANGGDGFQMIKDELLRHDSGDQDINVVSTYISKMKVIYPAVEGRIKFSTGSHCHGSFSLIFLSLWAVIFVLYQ
Format: cell-based
Protocol: The day before the experiment, 5000 cells were plated per well in a 96-well plate. Cells were washed twice with 200 μL reaction buffer (20 mM HEPES, pH 7.4, 125 mM NaCl, 1 mM KCl, 2 mM MgCl2, 10 mM glucose) to remove residual inorganic phosphate. After washing, assays contained serial dilutions of test compounds and 100 μM of AMP in a total volume of 200 μL reaction buffer, with a final DMSO concentration ≤0.5%. After 30 minutes at room temperature, supernatant was removed from the cells. […] The concentration of inorganic phosphate was determined using a phosphate standard curve to determine IC50.

Question: For `Nc1nc(Cl)nc2c1ncn2[C@@H]1O[C@H](COC(Cc2ccccc2F)(C(=O)O)C(=O)O)[C@@H](O)[C@@H]1F` [compound 127], which IC50 is on record?
Answer: 408 nM

Question: Which IC50 does the source give for `O=C(O)C(Cc1ccccc1)(OC[C@H]1O[C@@H](n2cnc3c(SC4CCCC4)nc(Cl)nc32)[C@@H](F)[C@@H]1O)C(=O)O` [compound 109] here?
Answer: 1910 nM

Question: How did the IC50 turn out when `Nc1nc(Cl)nc2c1ncn2[C@@H]1O[C@H](COC(Cc2ccc3c(c2)OC(F)(F)O3)(C(=O)O)C(=O)O)[C@@H](O)[C@@H]1F` [compound 110] was run?
Answer: 361 nM

Question: With `Nc1nc(Cl)nc2c1ncn2[C@@H]1O[C@H](COC(Cc2ccccc2)(C(=O)O)C(=O)O)[C@@H](O)[C@H]1N` [compound 55, 2-(((2R,3S,4R,5R)-4-amino-5-(6-amino-2-chloro-9H-purin-9-yl)-3-hydroxytetrahydrofuran-2-yl)methoxy)-2-benzylmalonic acid] as the molecule, how does the IC50 read?
Answer: > 50000 nM

From patent publication US11034715B2, “Ectonucleotidase inhibitors and methods of use thereof” (Calithera Biosciences, Inc., priority 2016, dated 2021)
